From PubChem BioAssay (NCI)
Several values for one entry are separate records, joined by “and”; a condition that tells them apart may be missing. Equal values may be shown once.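 Compound exposure: 48 hours, 5 concentrations, 96-well plates. Here, GI50 denotes the concentration required for 50% inhibition of growth. TGI denotes the concentration required for complete inhibition of growth.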

Columns and labels:
Test in all cases: NCI anticancer screen, dose series, 48 h
M14 melanoma = system: M14 melanoma
SN12C renal = system: SN12C renal
HT29 colon = system: HT29 colon
SK-MEL-2 melanoma = system: SK-MEL-2 melanoma
EKVX NSCLC = system: EKVX NSCLC
DU-145 prostate = system: DU-145 prostate
NCI-H226 lung = system: NCI-H226 lung
TK-10 renal = system: TK-10 renal
SR leukemia = system: SR leukemia
KM12 colon = system: KM12 colon

Structure (SMILES) | GI50 (M14 melanoma) | TGI (M14 melanoma) | GI50 (SN12C renal) | TGI (SN12C renal) | GI50 (HT29 colon) | TGI (HT29 colon) | GI50 (SK-MEL-2 melanoma) [µM] | TGI (SK-MEL-2 melanoma) | GI50 (EKVX NSCLC) | TGI (EKVX NSCLC) | GI50 (DU-145 prostate) | TGI (DU-145 prostate) | GI50 (NCI-H226 lung) | TGI (NCI-H226 lung) | GI50 (TK-10 renal) | TGI (TK-10 renal) | GI50 (SR leukemia) | TGI (SR leukemia) | GI50 (KM12 colon) | TGI (KM12 colon)
CC(C)(CCN=C(N)Nc1ccccn1)c1ccc(C(F)(F)F)cc1 | 14 µM | 29.6 µM | 15.1 µM | 29.8 µM | 10.4 µM | 24 µM | 16.9 | 32.9 µM | 11.2 µM | 30.5 µM | 16.2 µM | 31.8 µM | 13.6 µM | 31.7 µM | 15.5 µM | 29.5 µM | 15.1 µM | 32.9 µM | 15.8 µM | 30.9 µM
COc1ccc2c(c1)C1OCCNC1CC2 (centres undefined) |  | > 100 µM |  | > 100 µM |  | > 100 µM |  | > 100 µM |  | > 100 µM |  | > 100 µM |  | > 100 µM |  | > 100 µM |  | > 100 µM |  | > 100 µM
O=S(=O)(c1ccc(Br)cc1)N1CCN(S(=O)(=O)c2ccc(Br)cc2)CC1 |  | > 100 µM |  | > 100 µM |  | > 100 µM |  | > 100 µM |  | > 100 µM |  | > 100 µM |  | > 100 µM |  | > 100 µM |  | > 100 µM |  | > 100 µM
NCCCn1c2c(c3ccc([N+](=O)[O-])cc3c1=O)C(=O)c1cc(-c3ccccc3)ccc1-2 | 1.12 µM | 2.37 µM | 0.824 µM | 2.34 µM | 0.19 µM | 0.368 µM | 0.438 | 1.27 µM | 1.61 µM | 3.45 µM | 0.491 µM | 1.02 µM |  |  |  |  | 0.183 µM | 0.46 µM | 0.291 µM | 0.818 µM
O=C1CCCCC=C1C[N+](=O)[O-] | 19.3 µM | 45 µM | 31.6 µM | > 100 µM | 19.3 µM | 50.3 µM | 19.5 | 44.4 µM | 34.5 µM | > 100 µM | 27.3 µM | 96.3 µM | 26 µM | 73.3 µM | 24.7 µM | 54.8 µM | 3.7 µM | 12.3 µM | 45.1 µM | > 100 µM
CN1CC[C@]2(c3cccc(O)c3)CC(=O)/C(=C/c3ccccc3)[C@H]1C2 |  | 9.46 µM |  | 11.4 µM | 3.59 µM | 12.4 µM | 3.28 | 12.6 µM | 3.57 µM | 13.9 µM | 3.14 µM | 11.3 µM | 9.03 µM | 28.6 µM | 6.32 µM | 13.2 µM | 1.35 µM | 5.9 µM |  | 13.9 µM
Cc1[nH]c(C(=O)Nc2ccccc2OC2CCNCC2)c(Cl)c1Cl | 0.95 µM | 1.9 µM | 0.86 µM | 1.59 µM | 0.875 µM | 1.71 µM | 0.932 | 1.91 µM | 1.09 µM | 3.86 µM | 1.05 µM | 2.04 µM | 0.966 µM | 1.96 µM | 0.841 µM | 1.62 µM | 1.46 µM | 5.69 µM | 1.28 µM | 3.16 µM
NC1CCC(Nc2nc(NCc3cc(Cl)ccc3O)c3ncn(C4CCCC4)c3n2)CC1 (centres undefined) | 0.162 µM | 0.33 µM | 0.143 µM | 0.759 µM | 0.22 µM | 0.755 µM | 0.188 | 0.356 µM | 0.262 µM | 0.928 µM | 0.207 µM | 1.02 µM | 0.247 µM | 2.78 µM | 0.332 µM | 0.979 µM | 0.0422 µM | 0.237 µM | 0.132 µM | 1.02 µM
c1cc(CSSCc2ccncc2)ccn1 |  | > 82.6 µM |  | > 100 µM |  | > 100 µM |  | 82.1 µM |  | > 100 µM |  | > 66.4 µM |  | > 85.5 µM |  | > 100 µM |  | 30.3 µM |  | > 100 µM
COc1cc2nc(-c3ccc(Cl)cc3)cc(OCCCN3CCCC3)c2cc1OC | 0.402 µM | 1.51 µM | 0.914 µM | 13.7 µM | 0.454 µM | 4.17 µM | 2.16 | 5.22 µM | 1.21 µM | 12 µM | 2.15 µM | 13.8 µM | 0.898 µM | 3.21 µM | 2.33 µM | 7.41 µM | 0.251 µM | 1.38 µM | 2.46 µM | 10.2 µM
CSCC[C@H](NC(=O)[C@H](CC(C)C)NC(=O)[C@@H](Cc1ccccc1)NC(=O)CNC(=O)[C@@H](NC(=O)[C@H](C)NC(=O)[C@H](Cc1c[nH]c2ccccc12)NC(=O)[C@H](CCC(N)=O)NC(=O)[C@H](N)CC(N)=O)C(C)C)C(N)=O |  | > 12.5 µM |  | > 12.5 µM |  | > 12.5 µM |  |  |  | > 12.5 µM |  | > 12.5 µM |  | > 12.5 µM |  | > 12.5 µM |  | 10.7 µM |  | > 12.5 µM
N#CC1(Nc2ccc(-c3ccc(NC4(C#N)CCCC4)cc3)cc2)CCCC1 |  | > 100 µM |  | > 100 µM |  | > 100 µM |  | > 100 µM |  | > 100 µM |  | > 100 µM |  | > 100 µM |  | > 100 µM |  | > 100 µM |  | > 100 µM
CSc1ccc2c(c1)N(CCC1CCCCN1C)c1ccccc1S2 (centres undefined) | 2.17 µM and 1.85 µM | 4.89 µM and 3.76 µM | 4.81 µM and 6.05 µM | 18.8 µM and 19.3 µM | 4.08 µM and 2.54 µM | 15.1 µM and 7.9 µM | 10.7 | 25.8 µM | 7.93 µM and 8.06 µM | 23.5 µM and 22.7 µM | 6.06 µM and 4.15 µM | 17.9 µM and 14.2 µM | 11.2 µM and 11.4 µM | 28.5 µM and 30.3 µM | 13.8 µM and 4.11 µM | 28.5 µM and 13.4 µM | 4.45 µM and 3.41 µM | 17.2 µM and 12.4 µM | 6.3 µM and 4.16 µM | 18.8 µM and 16.1 µM
C=C1COC(O)(C2OCOC(C3CC(=O)NC(=O)C3)C2O)C1C (centres undefined) | 0.00323 µM | 0.017 µM and 0.0232 µM |  | 0.012 µM |  | 0.0207 µM and 0.0511 µM | 0.00243 | 0.00927 µM and 0.0446 µM | 0.00507 µM | 0.04 µM and 0.266 µM | 0.0125 µM | 0.0616 µM | 0.00356 µM | 0.019 µM and 0.0216 µM | 0.00456 µM | 0.0539 µM and 0.0498 µM |  | 0.00841 µM | 0.00176 µM | 0.0212 µM
O=C(NNc1ccc(F)cc1)C1CCC(CNS(=O)(=O)c2ccc(Cl)c(Cl)c2)CC1 (centres undefined) | 7.49 µM | > 50 µM | 7.97 µM | > 50 µM |  |  | > 50 | > 50 µM | 7.98 µM | > 50 µM | 5.52 µM | > 50 µM | 15.6 µM | > 50 µM | 1.74 µM | 16.4 µM | 17 µM | > 50 µM | 1.38 µM | 42.6 µM
CCOc1ccc2c(C)cc(=O)oc2c1 |  | > 100 µM |  | > 100 µM |  | > 100 µM |  | > 100 µM |  | > 100 µM |  | > 100 µM |  | > 100 µM |  |  |  | > 100 µM |  | > 100 µM
O=c1c2cccc(F)c2sc2c(N3CCNCC3)nc3ccccc3c12 | 1.71 µM | 3.17 µM | 1.32 µM | 2.72 µM | 1.13 µM | 2.59 µM | 1.76 | 3.46 µM | 1.59 µM | 2.99 µM | 1.4 µM | 2.76 µM | 1.65 µM | 3.4 µM |  |  | 1.08 µM | 3.35 µM | 1.65 µM | 3.17 µM
C=C1CC[C@@H]2[C@](C)(COC(C)=O)[C@H](OC(C)=O)CC[C@@]2(C)[C@@H]1CC(Nc1ccc(S(=O)(=O)Nc2cc(C)on2)cc1)C1=CCOC1=O (some centres undefined) | 1.69 µM | 4.17 µM | 1.73 µM | 4.52 µM | 1.58 µM | 3.09 µM | 2.04 | 4.4 µM | 11 µM | 25.9 µM | 2.43 µM | 6.53 µM |  |  | 3.04 µM | 7.11 µM | 0.375 µM | 3.36 µM | 1.83 µM | 3.69 µM
N#Cc1ccsc1NC(=O)COC(=O)c1cccc(S(=O)(=O)N2CCc3ccccc32)c1 |  |  |  |  | 14.5 µM | > 100 µM | > 100 | > 100 µM | 68.3 µM | > 100 µM | 33.7 µM | > 100 µM | > 100 µM | > 100 µM | > 100 µM | > 100 µM | 22.9 µM | > 100 µM | 38.6 µM | > 100 µM
CCCC[n+]1c(/C=C\c2c(OC)cc(OC)cc2OC)ccc2ccccc21 | 1.18 µM | 2.81 µM | 0.728 µM | 5.77 µM | 0.663 µM | 4.09 µM | 1.08 | 2.74 µM |  |  | 1.04 µM | 11.1 µM | 1.92 µM | 12.6 µM | 1.55 µM | 6.26 µM | 0.306 µM | 30.3 µM | 0.345 µM | 1.59 µM
O=[N+]([O-])c1ccc(Sc2nc(Cl)nc(NC3CCCC3)n2)cc1 | > 10 µM | > 10 µM | > 10 µM | > 10 µM | > 10 µM | > 10 µM | > 10 | > 10 µM |  |  | 7.99 µM | > 10 µM | > 10 µM | > 10 µM | > 10 µM | > 10 µM | > 10 µM | > 10 µM | > 10 µM | > 10 µM
